Test results: article PMC9643456, “Matching amino acids membrane preference profile to improve activity of antimicrobial peptides” (Communications Biology, 2022)
Converted amounts (≈) assume the structure as drawn. Where two headings read alike, the source gives them in different places. Square brackets hold non-standard residues; d marks the D form. Peptide text beside a SMILES is read from it.

Key:
A. baumannii strains = test: microbe, parasite or virus in culture
Description: (§1) Twenty-six A. baumannii strains were clinically isolated and gifted to us by the Kyungpook National University School of Medicine. One A. baumannii strain (ATCC 17978) was purchased and gifted to us by Kyungpook National University School of Medicine. One A. baumannii strain and 10 K. pneumoniae strains (NCCP) were purchased from the National Culture Collection for Pathogens.
(§2) To assess antimicrobial activity, the MIC50 and MIC90 were measured using broth microdilution following CLSI guidelines. […] Each experiment was performed in triplicate. Meropenem (Sigma, Darmstadt, Germany) and colistin were used as control antibiotics. Cation-adjusted Mueller–Hinton broth (CAMHB) (Becton, Dickinson and Company, Franklin Lakes, USA) with supplied calcium (50 mg/L) and magnesium (10 mg/L) was used for the CLSI-test condition. Bacteria in midlog phase and peptides were separately diluted in CAMHB. The bacteria and peptide solutions were then mixed in 96-well polyethylene plates (SPL, Gyeonggi-do, Korea) and incubated for 18 h at 37 °C. The final concentration for bacteria was 5 × 10^5 CFU/ml. […] The MIC was defined to be the lowest concentration of peptide without visible turbidity by comparing with control antibiotics with the unaided eye. […] Each experiment was performed in triplicate. MICs in albumin and acetic acid solutions were measured using the same protocol but with 0.2% bovine serum albumin (Bovogen, Keilor, Australia), 0.01% acetic acid (Merck, New Jersey, USA), and CAMHB with both calcium and magnesium. In addition, MICs used in the antibiotic resistance acquisition test, the outer–inner membrane permeation test, and the transmembrane potential test and for FE-SEM were individually determined. The final bacterial concentrations used were as follows: for resistance acquisition, optical density (OD) 0.01; for outer–inner membrane permeability assays (LB), OD 0.1; for the transmembrane potential test, 1 × 10^8 CFU/ml (OD 0.171); […]. Inhibitory activity unidentifiable by direct observation was determined by counting the CFUs. Each experiment was performed at least twice.

K. pneumonia strains = test: microbe, parasite or virus in culture; details: Klebsiella pneumoniae
Description: as §1, §2

human red blood cells = test: Hemolytic activity; type: cell-based; details: red cells of human, 18 h
How it was run: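 Haemolysis was read as A540 of cleared supernatants after 18 h at 37 °C, with 0% and 100% lysis set by peptide-free PBS and 1% Triton X-100 and melittin as positive control. Human RBCs were at 4% final, peptide serially diluted 100–0.78 μM; three replicates.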

MDR S. aureus = test: microbe, parasite or virus in culture; details: CLSI broth microdilution; CAMHB with 50 mg/L Ca2+, 10 mg/L Mg2+; 5 × 10^5 CFU/ml; 18 h 37 °C; triplicate; strain KCCM 40510
How it was run: (§3)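 CLSI broth microdilution used CAMHB supplemented with Ca (50 mg/L) and Mg (10 mg/L); runs in triplicate against meropenem/colistin controls.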

MDR E. faecalis = test: microbe, parasite or virus in culture; details: CLSI broth microdilution; CAMHB with 50 mg/L Ca2+, 10 mg/L Mg2+; 5 × 10^5 CFU/ml; 18 h 37 °C; triplicate; strain ATCC 51575
How it was run: as §3

MDR A. baumannii = test: microbe, parasite or virus in culture; details: CLSI broth microdilution; CAMHB with 50 mg/L Ca2+, 10 mg/L Mg2+; 5 × 10^5 CFU/ml; 18 h 37 °C; triplicate; strain ATCC BAA-1605
How it was run: as §3

MDR P. aeruginosa = test: microbe, parasite or virus in culture; details: CLSI broth microdilution; CAMHB with 50 mg/L Ca2+, 10 mg/L Mg2+; 5 × 10^5 CFU/ml; 18 h 37 °C; no visible turbidity; triplicate; strain CCARM 2180
How it was run: as §3

[1] = Maximum soluble concentration / turbidity; type: physicochemical; details: distilled water
Description: Supplementary Methods Bacteria preparation, Antimicrobial peptides preparation, Minimal-inhibitory-concentration measurements, Hemolysis-activity measurements, Tryptophan fluorescence measurements, Isothermal titration calorimetry measurements, Bacteria membrane ion permeation measurements, Outer-inner membrane permeation, Field-emission scanning electron microscopy and Antimicrobial kinetics were performed as described in Materials and Methods. Liposome (LUV) preparation. Bacterial-membrane-mimic DMPC/DMPG unilamellar vesicles (LUV) and mammalian- membrane-mimic PC/cholesterol vesicles with 100-nm diameters were prepared by extrusion. LiposoFast Liposome Factory Basic unit with stabilizer (Avestin, Ottawa, Canada) was used to extrude liposomes 50 times through a polycarbonate membrane filter (pore diameter, 100 nm; filter diameter, 0.75 inches) (Avestin). […] rac-(1-glycerol)) (sodium salt) (DMPG) (Avanti, Alabama, USA); 1,2-Dimyristoyl-sn-glycero-3-phosphocholine (DMPC) (Avanti); and cholesterol (Sigma, Darmstadt, Germany) were used. For circular dichroism, isothermal titration calorimetry, tryptophan fluorescence, and dynamic light scattering experiments, liposomes were reconstructed and resuspendedwith phosphate-buffered saline (PBS; Welgene Inc, Gyeongsangbuk-do, Korea). For calcein-permeation tests, liposomes were reconstructed with calcein solutions (80 mM, 40 mM, 30 mM, 20 mM, and 10 mM) (Sigma, Darmstadt, Germany), purified with Sephadex-G50 columns (Pharmacia biotech, Stockholm, Sweden), and resuspended with PBS. Maximum-soluble -concentration measurements. […] turbidity with PBS. The lowest concentration of peptide without visible turbidity was determined to be the maximu m soluble concentration. Each experiment was performed at least twice. Circular dichroism (CD) spectrum. DMPC/PG -liposome, PC/cholesterol -liposome, and peptide stock solutions were diluted in PBS. For circular dichroism, PBS with neither liposome nor peptides was also prepared. Liposomes and peptides were mixed to […] Samples were transferred into type J/1 cuvettes (Jasco, Tokyo, Japan). Cuvettes were placed into the J -815 circular -dichroism spectrometer (Jasco, Tokyo, Japan). Measurement parameters were as follows: wavelength, 190 -260 nm; data pitch, 0.2 nm; bandwidth, 1.00 nm; […] Each experiment was performed in triplicate. Data below 197 nm was not analyzed because o f experimental difficulties in obtaining those spectra. Each experiment was performed at least twice. Artificial membrane calcein permeation measurements. Calcein fluorescence was used to measure peptide -induced liposome permeation. Calcein solutions (10 mM, 20 mM, or 60 mM) containing PC/PG liposomes and peptides were diluted in PBS ( ×1, ×2, ×3, ×8). […] Liposome solutions (180 μl) were transferred to wells of black, clear -bottomed 96 -well plates (Costar, New York, USA). Peptide […] Liposome-containing plates and peptide -containing plates were inserted into a Flexstation 3 Multi -Mode Microplate Reader (Molecular Devices, California, USA). Peptide solutions (20 μl) were transferred and mixed with liposome solution automatical ly after 30 sec. […] Measurement parameters were as follows: excitation, 490 nm; emission, 520 nm; temperature, 37 °C. […] was transferred and mixed with the liposome -peptide solu tions automatically after 300 sec to acquire fluorescence at maximum leakage. […] Fluorescence measured between 0 -300 sec after addition of 0 μg/ml peptide was considered the baseline. Each experiment was performed at least twice. Dynamic light scattering (DLS) measurements. Dynamic light scattering was used to measure peptide -induced liposome volume changes. PC/PG -liposome stock solutions and peptides were resuspended in PBS. Liposomes and peptides were mixed to […]

## C[C@@H](O)[C@H]1C(=O)N2C(C(=O)O)=C(S[C@@H]3CN[C@H](C(=O)N(C)C)C3)[C@H](C)[C@H]12 [Meropenem]
A. baumannii strains; Acinetobacter baumannii
  MIC50: ≥ 20 µM
  MIC90: ≥ 20 µM
A. baumannii strains; Acinetobacter baumannii, ATCC17978, read-out: MIC, A. baumannii ATCC 17978
  MIC: < 0.31 µM
A. baumannii strains; Acinetobacter baumannii, KCCM40203, read-out: MIC, A. baumannii KCCM 40203
  MIC: 5 µM (≈ 1.92 µg/mL)
A. baumannii strains; Acinetobacter baumannii, read-out: MIC, A. baumannii ATCC BBA 1605
  MIC: > 20 µM
A. baumannii strains; Acinetobacter baumannii, read-out: MIC, A. baumannii Isolated strain 1
  MIC: > 20 µM
A. baumannii strains; Acinetobacter baumannii, read-out: MIC, A. baumannii Isolated strain 3
  MIC: > 20 µM
A. baumannii strains; Acinetobacter baumannii, read-out: MIC, A. baumannii Isolated strain 6
  MIC: > 20 µM
A. baumannii strains; Acinetobacter baumannii, read-out: MIC, A. baumannii Isolated strain 10
  MIC: > 20 µM
A. baumannii strains; Acinetobacter baumannii, read-out: MIC, A. baumannii Isolated strain 14
  MIC: > 20 µM
A. baumannii strains; Acinetobacter baumannii, read-out: MIC, A. baumannii Isolated strain 15
  MIC: < 0.31 µM
A. baumannii strains; Acinetobacter baumannii, read-out: MIC, A. baumannii Isolated strain 16
  MIC: > 20 µM
A. baumannii strains; Acinetobacter baumannii, read-out: MIC, A. baumannii Isolated strain 19
  MIC: > 20 µM
A. baumannii strains; Acinetobacter baumannii, read-out: MIC, A. baumannii Isolated strain 22
  MIC: > 20 µM
A. baumannii strains; Acinetobacter baumannii, read-out: MIC, A. baumannii Isolated strain 39
  MIC: > 20 µM
A. baumannii strains; Acinetobacter baumannii, read-out: MIC, A. baumannii Isolated strain 44
  MIC: > 20 µM
A. baumannii strains; Acinetobacter baumannii, read-out: MIC, A. baumannii Isolated strain 66
  MIC: > 20 µM
A. baumannii strains; Acinetobacter baumannii, read-out: MIC, A. baumannii Isolated strain 68
  MIC: > 20 µM
A. baumannii strains; Acinetobacter baumannii, read-out: MIC, A. baumannii Isolated strain 69
  MIC: > 20 µM
A. baumannii strains; Acinetobacter baumannii, read-out: MIC, A. baumannii Isolated strain 71
  MIC: > 20 µM
A. baumannii strains; Acinetobacter baumannii, read-out: MIC, A. baumannii Isolated strain 76
  MIC: > 20 µM
A. baumannii strains; Acinetobacter baumannii, read-out: MIC, A. baumannii Isolated strain 80
  MIC: > 20 µM
A. baumannii strains; Acinetobacter baumannii, read-out: MIC, A. baumannii Isolated strain 82
  MIC: > 20 µM
A. baumannii strains; Acinetobacter baumannii, read-out: MIC, A. baumannii Isolated strain 86
  MIC: > 20 µM
A. baumannii strains; Acinetobacter baumannii, read-out: MIC, A. baumannii Isolated strain 89
  MIC: > 20 µM
A. baumannii strains; Acinetobacter baumannii, read-out: MIC, A. baumannii Isolated strain 102
  MIC: > 20 µM
A. baumannii strains; Acinetobacter baumannii, read-out: MIC, A. baumannii Isolated strain 127
  MIC: > 20 µM
A. baumannii strains; Acinetobacter baumannii, read-out: MIC, A. baumannii Isolated strain 141
  MIC: > 20 µM
A. baumannii strains; Acinetobacter baumannii, read-out: MIC, A. baumannii Isolated strain 144
  MIC: > 20 µM
A. baumannii strains; Acinetobacter baumannii, read-out: MIC, A. baumannii Isolated strain 147
  MIC: > 20 µM
A. baumannii strains; Acinetobacter baumannii, read-out: MIC, A. baumannii Isolated strain 152
  MIC: > 20 µM
A. baumannii strains; Acinetobacter baumannii, read-out: MIC, A. baumannii NCCP 14654
  MIC: > 20 µM
A. baumannii strains; of 30 strains
  Number of A. baumannii strains at MIC (μM) 0.63: 0
  Number of A. baumannii strains at MIC (μM) 1.25: 0
  Number of A. baumannii strains at MIC (μM) 2.5: 0
  Number of A. baumannii strains at MIC (μM) 5: 1
  Number of A. baumannii strains at MIC (μM) 10: 0
  Number of A. baumannii strains at MIC (μM) ≤0.31: 2
  Number of A. baumannii strains at MIC (μM) ≥20: 27
K. pneumonia strains; read-out: MIC, K. pneumonia NCCP 15782
  MIC: > 20 µM
K. pneumonia strains; read-out: MIC, K. pneumonia NCCP 15864
  MIC: > 20 µM
K. pneumonia strains; read-out: MIC, K. pneumonia NCCP 15866
  MIC: > 20 µM
K. pneumonia strains; read-out: MIC, K. pneumonia NCCP 16052
  MIC: > 20 µM
K. pneumonia strains; read-out: MIC, K. pneumonia NCCP 16124
  MIC: > 20 µM
K. pneumonia strains; read-out: MIC, K. pneumonia NCCP 16125
  MIC: > 20 µM
K. pneumonia strains; read-out: MIC, K. pneumonia NCCP 16128
  MIC: 20 µM (≈ 7.67 µg/mL)
K. pneumonia strains; read-out: MIC, K. pneumonia NCCP 16208
  MIC: > 20 µM
K. pneumonia strains; read-out: MIC, K. pneumonia NCCP 16212
  MIC: > 20 µM
K. pneumonia strains; read-out: MIC, K. pneumonia NCCP 16213
  MIC: > 20 µM

## CC(C)C[C@@H](NC(=O)[C@H](N)Cc1c[nH]c2ccccc12)C(=O)N[C@H](CC(C)C)C(=O)N[C@H](Cc1c[nH]c2ccccc12)C(=O)N[C@H](C)C(=O)NCC(=O)N[C@H](C)C(=O)N[C@H](CCCNC(=N)N)C(=O)N[C@H](CCCCN)C(=O)N[C@H](CCCCN)C(=O)N[C@H](CCCNC(=N)N)C(N)=O [WCopW21] (H-[dW][dL][dL][dW][dA]G[dA][dR][dK][dK][dR]-NH2)
Human red blood cells
  Hemolysis percent, 25 μM: 0.60%
  Hemolysis percent, 50 μM: 1.03%
  Hemolysis percent, 100 μM: 1.74%
MDR S. aureus
  Minimum inhibitory concentrations, MDR S. aureus: > 20 µM
MDR E. faecalis
  Minimum inhibitory concentrations, MDR E. faecalis: > 20 µM
MDR A. baumannii
  Minimum inhibitory concentrations, MDR A. baumannii: > 20 µM
MDR P. aeruginosa
  Minimum inhibitory concentrations, MDR P. aeruginosa: > 20 µM

## CC(C)C[C@H](NC(=O)[C@H](CCCNC(=N)N)NC(=O)CNC(=O)CNC(=O)[C@@H](N)CCCNC(=N)N)C(=O)N[C@H]1CSSC[C@@H](C(=O)N[C@H](C(=O)NCC(=O)N[C@@H](CCCNC(=N)N)C(N)=O)C(C)C)NC(=O)[C@H](C(C)C)NC(=O)[C@@H]2CSSC[C@H](NC(=O)[C@H](Cc3ccc(O)cc3)NC1=O)C(=O)N[C@@H](CCCNC(=N)N)C(=O)N[C@@H](CCCNC(=N)N)C(=O)N[C@@H](CCCNC(=N)N)C(=O)N[C@@H](Cc1ccccc1)C(=O)N2 [Protegrin-1, reference compound]
[1]
  solubility: < 500 µM
Human red blood cells
  Hemolysis percent, 25 μM: 47.83 ±6.23%
  Hemolysis percent, 50 μM: 56.75 ±6.02%
  Hemolysis percent, 100 μM: 71.66 ±12.24%
